Assay results taken from ChEMBL document CHEMBL3091400, “The discovery of novel N-(2-pyrimidinylamino) benzamide derivatives as potent hedgehog signaling pathway inhibitors” (Bioorg Med Chem Lett, 2013).

Key:
Sonic hedgehog protein = Sonic hedgehog protein (Mus musculus, UniProt Q62226); assay: Inhibition of SHH signaling pathway in mouse NIH3T3 cells measured after 48 hrs by Gli-luciferase reporter assay; type: cell-based
[1] = Half life in Sprague-Dawley rat at 5 mg/kg, po; type: ADME, organism-based; set-up: dose 5 mg/kg, route oral; conditions: in vivo
[2] = Mean residence time in Sprague-Dawley rat at 5 mg/kg, po; type: ADME, organism-based; set-up: dose 5 mg/kg, route oral; conditions: in vivo
[3] = Clearance in Sprague-Dawley rat at 5 mg/kg, po; type: ADME, organism-based; set-up: dose 5 mg/kg, route oral; conditions: in vivo
Rattus norvegicus [4] = assay: Volume of distribution at steady state in Sprague-Dawley rat at 5 mg/kg, po; type: ADME, organism-based; set-up: dose 5 mg/kg, route oral; conditions: in vivo
[5] = AUC in Sprague-Dawley rat at 5 mg/kg, po; type: ADME, organism-based; set-up: dose 5 mg/kg, route oral; conditions: plasma
[6] = Cmax in Sprague-Dawley rat at 5 mg/kg, po; type: ADME, organism-based; set-up: dose 5 mg/kg, route oral; conditions: in vivo
[7] = Oral bioavailability in Sprague-Dawley rat at 5 mg/kg; type: ADME, organism-based; conditions: in vivo
[8] = Half life in Sprague-Dawley rat at 1 mg/kg, iv; type: ADME, organism-based; set-up: dose 1 mg/kg, route intravenous; conditions: in vivo
Rattus norvegicus [9] = assay: Mean residence time in Sprague-Dawley rat at 1 mg/kg, iv; type: ADME, organism-based; set-up: dose 1 mg/kg, route intravenous; conditions: in vivo
Rattus norvegicus [10] = assay: Clearance in Sprague-Dawley rat at 1 mg/kg, iv; type: ADME, organism-based; set-up: dose 1 mg/kg, route intravenous; conditions: in vivo
Rattus norvegicus [11] = assay: Volume of distribution at steady state in Sprague-Dawley rat at 1 mg/kg, iv; type: ADME, organism-based; set-up: dose 1 mg/kg, route intravenous; conditions: in vivo
[12] = AUC in Sprague-Dawley rat at 1 mg/kg, iv; type: ADME, organism-based; set-up: dose 1 mg/kg, route intravenous; conditions: plasma
[13] = Cmax in Sprague-Dawley rat at 1 mg/kg, iv; type: ADME, organism-based; set-up: dose 1 mg/kg, route intravenous; conditions: in vivo

Sequence of Sonic hedgehog protein (Q62226 25-198 limits assumed): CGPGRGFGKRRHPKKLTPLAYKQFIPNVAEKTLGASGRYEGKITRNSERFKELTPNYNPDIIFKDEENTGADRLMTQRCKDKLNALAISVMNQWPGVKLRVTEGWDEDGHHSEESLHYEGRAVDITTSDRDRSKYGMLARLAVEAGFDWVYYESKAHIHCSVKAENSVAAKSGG

| IC50 (Sonic hedgehog protein) | also measured | SMILES |
| --- | --- | --- |
| > 500 nM | – | Cc1cnc(Nc2ccc(C(=O)Nc3c(C)cccc3C)cc2)nc1-c1cccnc1 |
| 159 nM | – | Cc1cnc(Nc2ccc(C(=O)Nc3c(C)cccc3C)cc2)nc1-c1ccc(OC(F)(F)F)c(F)c1 |
| 5.3 nM | – | CCc1cnc(Nc2ccc(C(=O)Nc3c(C)cccc3C)cc2)nc1-c1ccc(OC(F)(F)F)cc1 |
| 1.1 nM | – | Cc1ccc(CN(C)Cc2ccccc2)cc1NC(=O)c1ccc(Nc2ncc(C)c(-c3ccc(OC(F)(F)F)cc3)n2)cc1 |
| 15.7 nM | – | Cc1cnc(Nc2ccc(C(=O)Nc3c(C)cccc3C)cc2)nc1-c1ccoc1 |
| 1.3 nM | – | Cc1cnc(Nc2ccc(C(=O)Nc3c(C)cccc3C)cc2)nc1-c1ccccc1 |
| 1.2 nM | – | Cc1cnc(Nc2ccc(C(=O)Nc3c(C)cccc3C)cc2)nc1-c1cccc(OC(F)(F)F)c1 |
| 0.8 nM | – | CCCc1cc(-c2ccc(OC(F)(F)F)cc2)nc(Nc2ccc(C(=O)Nc3c(C)cccc3C)cc2)n1 |
| 5.5 nM | – | Cc1c(C(=O)Nc2ccc(N3C[C@@H](C)O[C@@H](C)C3)nc2)cccc1-c1ccc(OC(F)(F)F)cc1 [SONIDEGIB] |
| 1.3 nM | half-life [1]: 420 min; MRT [2]: 5.1 h; CL/F [3]: 46.6 mL/min/kg; Vdss (Rattus norvegicus [4]): 27738 mL/kg; AUC [5]: 1700 ng·h/mL; Cmax [6]: 342 ng/mL; bioavailability [7]: 36%; half-life [8]: 618 min; MRT (Rattus norvegicus [9]): 4 h; CL (Rattus norvegicus [10]): 1004 mL/h/kg; Vdss (Rattus norvegicus [11]): 14898 mL/kg; AUC [12]: 915 ng·h/mL; Cmax [13]: 764 ng/mL | Cc1cnc(Nc2ccc(C(=O)Nc3c(C)cccc3C)cc2)nc1-c1ccc(OC(F)(F)F)cc1 |
| 20.2 nM | – | Cc1cnc(Nc2ccc(C(=O)Nc3c(C)cccc3C)cc2)nc1-c1ccc(N2CCOCC2)cc1 |
| 10.6 nM | – | Cc1cnc(Nc2ccc(C(=O)Nc3c(C)cccc3C)cc2)nc1-c1cnn(C)c1 |
| 1.2 nM | – | Cc1ccc(-c2cnn(C)c2)cc1NC(=O)c1ccc(Nc2ncc(C)c(-c3ccc(OC(F)(F)F)cc3)n2)cc1 |
| 0.53 nM | – | Cc1cccc(C)c1NC(=O)c1ccc(Nc2ncc(C(F)(F)F)c(-c3ccc(OC(F)(F)F)cc3)n2)cc1 |
| 1.4 nM | – | Cc1cc(-c2ccc(OC(F)(F)F)cc2)nc(Nc2ccc(C(=O)Nc3c(C)cccc3C)cc2)n1 |
| 354 nM | – | Cc1cnc(Nc2ccc(C(=O)Nc3ccccc3CN3CCN(C)CC3)cc2)nc1-c1ccc(OC(F)(F)F)cc1 |
| 2.7 nM | – | Cc1cnc(N(C)c2ccc(C(=O)Nc3c(C)cccc3C)cc2)nc1-c1ccc(OC(F)(F)F)cc1 |
| 2.8 nM | – | Cc1cnc(Nc2ccc(C(=O)Nc3c(C)cccc3C)cc2)nc1-c1ccc(C#N)cc1 |
| 23.4 nM | – | Cc1cccc(C)c1NC(=O)c1ccc(Nc2cccc(-c3ccc(OC(F)(F)F)cc3)n2)cc1 |
| 42.1 nM | – | Cc1ccccc1C(=O)Nc1ccc(Nc2ncc(C)c(-c3ccc(OC(F)(F)F)cc3)n2)cc1 |

| IC50 (Sonic hedgehog protein) | also measured | SMILES |
| --- | --- | --- |
| 2.2 nM | – | Cc1cnc(Nc2ccc(C(=O)NC3CCCCC3)cc2)nc1-c1ccc(OC(F)(F)F)cc1 |
| > 500 nM | – | Cc1cnc(Nc2ccc(C(=O)Nc3c(C)cccc3C)cc2)nc1-c1ccccc1OC(F)(F)F |
| 118 nM | – | Cc1cnc(Nc2ccc(C(=O)Nc3ccc(CN4CCN(C)CC4)cc3)cc2)nc1-c1ccc(OC(F)(F)F)cc1 |
| 125 nM | – | Cc1cnc(Nc2ccc3[nH]ncc3c2)nc1-c1ccc(OC(F)(F)F)cc1 |
| 2.2 nM | – | Cc1cnc(Nc2ccc(C(=O)Nc3c(C)cccc3C)cc2)nc1-c1ccc(F)cc1 |
| 73.1 nM | – | Cc1cnc(Nc2ccc(C(=O)NC(C)C)cc2)nc1-c1ccc(OC(F)(F)F)cc1 |
| 0.54 nM | – | Cc1cnc(Nc2ccc(C(=O)Nc3c(C)cccc3C)cc2)nc1-c1ccncc1 |
| > 500 nM | – | Cc1cnc(Nc2ccc(N3C[C@@H](C)O[C@@H](C)C3)nc2)nc1-c1ccc(OC(F)(F)F)cc1 |
| 1.6 nM | – | Cc1cccc(C)c1NC(=O)c1ccc(Nc2nc(C)c(C)c(-c3ccc(OC(F)(F)F)cc3)n2)cc1 |
| 1.6 nM | – | Cc1cccc(C)c1NC(=O)c1ccc(Nc2cc(-c3ccc(OC(F)(F)F)cc3)ccn2)cc1 |
| > 500 nM | – | Cc1ccc(-c2nc(Nc3ccc(C(=O)Nc4c(C)cccc4C)cc3)ncc2C)cc1 |
| 1.6 nM | – | Cc1cccc(C)c1NC(=O)c1ccc(Nc2ncc(F)c(-c3ccc(OC(F)(F)F)cc3)n2)cc1 |
| 1.3 nM | – | Cc1cccc(C)c1NC(=O)c1ccc(Nc2ncc(C3CC3)c(-c3ccc(OC(F)(F)F)cc3)n2)cc1 |
| 1.2 nM | – | Cc1cccc(C)c1NC(=O)c1ccc(Nc2nccc(-c3ccc(OC(F)(F)F)cc3)n2)cc1 |
| 152 nM | – | Cc1cnc(Nc2ccc(C(=O)Nc3c(C)cccc3C)cc2)nc1C |
| 101 nM | – | Cc1ccc(CN(C)Cc2ccccc2)cc1NC(=O)c1ccc(Nc2ncc(C)c(C)n2)cc1 |
| 32.8 nM | – | Cc1cnc(Nc2ccc(C(=O)Nc3c(C)cccc3C)cc2)nc1C1CC1 |
| 7.2 nM | – | CS(=O)(=O)c1ccc(C(=O)Nc2ccc(Cl)c(-c3ccccn3)c2)c(Cl)c1 [VISMODEGIB] |
| 1 nM | – | Cc1ccccc1NC(=O)c1ccc(Nc2ncc(C)c(-c3ccc(OC(F)(F)F)cc3)n2)cc1 |
| 34.3 nM | – | Cc1cnc(Nc2ccc(C(=O)Nc3c(C)cccc3C)cc2)nc1Cc1ccccc1 |
